Data set [1] has as its system C57BL/6 mice given sublethal TBI. Description: Thymic regeneration after sublethal total body irradiation (SL-TBI, 550 cGy). As to conditions: for thymic regeneration (thymus cellularity): day 14. In kind it is in vivo, mouse. An excerpt:
FIGS. 4A-4G. […] (4A, 4B) 6-8 week-old female C57BL/6 mice were fed a normal or ZD diet for 21 days at which point mice were given a sublethal dose of total body irradiation (TBI, 550 cGy). (4A) Total thymic cellularity at days 7 and 14 after TBI (n=10/treatment/timepoint across two independent experiments). (4B) Total number of CD45-EpCAM^+MHCII^+UEA1^loLy51^hi (cTECs) and CD45^− EpCAM^+MHCII^+UEA1^hi Ly51^lo (mTECs) at days 7 and 14 after TBI (n=10/treatment/timepoint across two independent experiments). (4C) 6-12 week-old female BALB.B mice were fed with normal or ZD diet for 21 days, at which point mice were given a lethal dose of TBI (900cGy) and 10×10^6 T cell-depleted bone marrow (BM) cells from 6-8 week-old C57BL/6. One cohort also received 2×10^6 T cells to induce graft versus host disease (GVHD); thymic cellularity was quantified on day 14 after allogeneic hematopoietic stem cell transplant (allo-HCT, n=5-6/group). (4D) 6-8 week-old female C57BL/6 mice were fed with normal or ZD diet for 21 days at which point mice were given 550 cGy TBI and total thymus cellularity quantified on day 14. […] (4E) Total thymic cellularity. (4F) Total number of cTECs and mTECs. (4G) Total number of Ki-67+ thymic endothelial cells (TECs). […]

The next data set has as its system Foxn1 in C9 (cTEC) cells. Description: Foxn1 expression by qPCR in C9 cells. In kind it is cell-based, mouse. The protocol: (§1) FIGS. 7A, 7B. […] Graphs represent mean±SEM, each dot represents a biologically independent observation (n=3 independent experiments). *, p<0.05; **, p<0.01; ***p<0.001.
(§2) FIGS. 18A-18G. Thymuses were harvested at d0, d1, d2, and d3 after TBI (550 cGy) and (18A) mitochondrial membrane potential, (18B) Reactive oxygen species (ROS) levels, and (18C) glutathione levels were measured in DP thymocytes and cTECs (n=4-7 mice from 1-2 experiments). (18D) Foxn1 expression in FACs-purified cTECs at d0, d4, and d7 after TBI; (18E) Intracellular Ca2+ levels were measured on whole thymus harvested at d0, d2, d4, and d7 post SL-TBI. (18F, 18G) Foxn1 expression levels were measured by qPCR in (18F) C9, and (18G) TE71 cells after treatment with Tunicamycin (5 ug/ml) or Thapsigargan (1 μg/ml). Graphs represent mean+/−SD.
FIGS. 19A, 19B. (19A) C9s were treated with (19A) ATP and P2X7 antagonist or (19B) P2Y2 agonist or antagonist and FOXN1 expression was assessed by qPCR after 20 h. Graphs represent mean+/−SEM.
(§3) Cell cultures. exEC were generated as previously described (Seandel et al., Proc Natl Acad Sci USA. 2008, 105(49):19288-19293). Cells were cultured in presence of ultrapure Zn sulfate monohydrate purchased from Alfa Aesar (Haverhill, Mass. #1113809) or sodium pyrythione (Sigma Aldrich, St. Louis, Mo. #H3261-1G). TC-G 1008 was used in cell cultures at a final concentration of 25 μM. Silencing of the zinc receptor Gpr39 was performed by electroporation using Nucleofector electroporation kit (VPI-1001, Lonza; Program M-003, Nucleofector 2b, Lonza), and the GPR39 siRNA Silencer Select (Thermo, Waltham, Mass.). Mouse C9 (cTEC) and TE-71 (mTEC) cells were kindly provided by A. Farr, University of Washington.
PCR and Microarray. Reverse transcription-PCR was performed with iScript Clear gDNA cDNA synthesis kit (Bio Rad, Hercules, Calif.) on CFX96 (Bio Rad, Hercules, Calif.) with iTaq Universal SYBR Green (Bio Rad). Relative amounts of mRNA were calculated by the comparative AC(t) method or as relative expression. SYBR Green gene expression assays for qPCR, including Bmp4 (Mm00432087_m1), Foxn1 (Mm00433948_m1), beta-actin, Gpr39, Top1 were all purchased from Life Technologies (Carlsbad, Calif.) and Bio Rad (Hercules, Calif.). b-actin: synthesized by IDT, F: 5′-[…]-3′ (SEQ ID NO: 6), R: 5′-[…]-3′ (SEQ ID NO: 7). Top1: synthesized by IDT, sequences provided by PrimerBank, PrimerBank ID 6678399a1. Bmp4: Biorad qMmuCED0046239. Foxn1: Biorad qMmuCED0044924. Microarray data from CD45^− cells was analyzed on day 0, 4 and 7 as previously described (Wertheimer et al., Science Immunology. 2018, 3(19)) (GSE106982) and differential gene expression of Gpr39 was calculated.
(In qPCR the cycle at which signal appears reflects the starting amount.)

Data set [2] deals with Bmp4 in exECs. Put plainly: BMP4 protein by ELISA in exECs. In kind it is cell-based, mouse. On the procedure: FIGS. 10A-10F. G-protein coupled receptor 39 (GPR39) expressed by thymic endothelial cells is the central mediator of Zn-centered regeneration. […] Bmp4 expression was measured by qPCR (n=6 combined from two independent experiments). (10B) GPR39 expression across subsets in the thymus by flow cytometry at baseline. […] (10C) Expression of GPR39 on cTECs, mTECs, ECs and fibroblasts at days 0, 4, and 7 after TBI. […] BM P4 was measured by ELISA.
Background: An ELISA detects its analyte on a solid surface through an enzyme-linked reagent.

Another data set relates to C9 (cTEC) cells. Conditions: graded doses of ZnSO4, 24 h. The protocol: as §1, §3
(§4) ELISA and Western Blot. Cell culture or tissue lysates were prepared in RIPA buffer (Thermo, Waltham, Mass.) as previously described (Wertheimer et al., Science Immunology. 2018, 3(19)) and normalized by BCA assay (Thermo, Waltham, Mass.). BMP4 levels were quantified by ELISA (LSBio, Seattle, Wash.) and read on a Spark 10M plate reader (Tecan, Switzerland). Cortisol levels were measured with ELISA on peripheral blood (R&D systems, Minneapolis, Minn.).

For the next data set, the system named is TE-71 (mTEC) cells. As to conditions: TE-71 cells, graded doses of ZnSO4, 24 h. The protocol: as §1, §3, §4
For data set [3] the following is noted: 300 mg/kg/day ZnSO4 in drinking water for 21 days, Fluozin-3 and ICP-MS. On the procedure:
FIGS. 9A-9G. […] (9A, 9B) 6-8 week-old female C57BL/6 mice were given 550 cGy TBI and levels of Zn were measured by inductively coupled plasma mass spectrometry (ICP-MS). (9A) Total thymic amounts of Zn from both intracellular and extracellular fractions of thymus (n=6/timepoint). (9B) Extracellular Zn was measured only in thymic supernatants and the ratio of extracellular to total thymic Zn was calculated (n=6/timepoint). […] Thymocytes were isolated either before or 48 hours after TBI and co-cultured with exECs. Bmp4 expression was measured by qPCR at 24 hours (n=3-4/group). […] Thymus cellularity was measured at day 28 after TBI (n=4-5/group). (9E) 6-8 week-old female C57BL16 mice were fed a normal or ZD diet for 21 days after which thymocytes were isolated by CD90+ magnetic separation. Intracellular Zn levels were measured by staining with Fluozin-3 and assessed by flow cytometry (n=5/group across two independent experiments).

The subject of another data set is ERK1/2. Conditions: exECs stimulated with Zn.
In data set [4] the test system is mice given TCD allo-HCT from RAG2-GFP donors. Conditions: ZnSO4 in drinking water, peripheral blood and spleen after HCT, day 53. The protocol: FIGS. 12A-12D. […] (12A). […] (12B) Splenic T cells were analyzed for GFP expression on day 53 (n=4-5/group).
A further data set has as its system BMP4.
Description: (§5) FIGS. 8A-8F. […] (8A) 6-8 week-old female C57BL/6 mice were fed a normal or ZD diet for 21 days at which point mice were given 550 cGy TBI. […] Levels of BMP4 were quantified by enzyme-linked immunoassay (ELISA) at day 10 after TBI (n=5-10/group from one independent experiment). […] Mice were maintained on Zn-supplemented drinking water for the duration of the study. (8B) BMP4 levels measured by ELISA at day 10 (n=9/group combined from three independent experiments). (8C) Endothelial cells (ECs) were fluorescence-activated cell sorting (FACS) purified at day 7 and Bmp4 expression was measured by qPCR (n=6/group combined from two independent experiments). […] Total thymus cellularity was quantified at day 10 after TBI (n=5/group from one independent experiment).
as §4

In data set [5] the test system is Foxn1 in TE-71 (mTEC) cells. Put plainly: Foxn1 expression by qPCR in TE-71 cells. It is filed as cell-based, mouse. The protocol:
as §2
PCR and Microarray. […] Bmp4: Biorad qMmuCED0046239. Foxn1: Biorad qMmuCED0044924.

Data set [6] relates to Bmp4 in exECs. Description: Bmp4 expression by qPCR in exECs. It is filed as cell-based, mouse. As to conditions: ZnSO4 50 and 100 μM, 24 hours.
For data set [7], the system named is lineage-negative bone marrow (BM) co-cultured with OP9-DL1 cells. As to conditions: ZnSO4 10 μM added from day 0, read at day 30, versus control.
Description: Concatenated flow cytometry plots displaying CD4 and CD8 expression at day 30 (n=5 independent experiments).
To confirm the importance of Zn on T cell maturation, lineage-negative bone marrow (BM) isolated from C57BL/6 mice were co-cultured on the OP9-DLL1 system, which is able to support T cell development in vitro (Schmitt et al., Nat Immunol. 2004, 5(4):410-417; and Holmes et al., Cold Spring Harb Protoc. 2009, 2009(2):pdb prot5156).
OP9-DL1 cells were kindly provided by J. C. Zuniga-Pflucker, University of Toronto and cultured as previously described (Holmes et al., Cold Spring Harb Protoc. 2009, 2009(2):pdb prot5156) using lineage-negative BM (using a lineage depletion kit, Miltenyi Biotech, Germany). Flt-3L and IL-7 were purchased from Peprotech (Rocky Hill, N.J.).
Data set [8] deals with Bmp4 in endothelial cells (ECs). As to conditions: 300 mg/kg/day ZnSO4 21 days before TBI, ECs sorted at day 7.
Description: as §5
PCR and Microarray. Reverse transcription-PCR was performed with iScript Clear gDNA cDNA synthesis kit (Bio Rad, Hercules, Calif.) on CFX96 (Bio Rad, Hercules, Calif.) with iTaq Universal SYBR Green (Bio Rad). Relative amounts of mRNA were calculated by the comparative AC(t) method or as relative expression. […] Microarray data from CD45^− cells was analyzed on day 0, 4 and 7 as previously described (Wertheimer et al., Science Immunology. 2018, 3(19)) (GSE106982) and differential gene expression of Gpr39 was calculated.

Entries after “also recorded” stand apart in the source; their conditions may differ. Like-named read-outs stand apart in the source and are kept apart here.

Description for ERK1/2: Flow cytometry, multidimensional analyses, and FACS sorting. For flow cytometry and cell sorting, surface antibodies against CD45 (30-F11), CD31 (390 or MEC13.3), CD90.2 (30-H12), TER-119 (TER-119), CD4 (RM4-5 or GK1.5), CD8 (53-6.7), TCRβ (H57-597), CD3 (145-2C11), CD44 (IM7), CD25 (PC 61.5), CD62L (MEL14), MHC-II IA/IE (M5/114.15.2), EpCAM (G8.8), Ly51 (6C3), CD11c (HL3), IL-7Ra (A7R34), CCR6 (140706), CD45.1 (A20), CD45.2 (104), ki-67 (16A8), and PDGFRa (APAS) were purchased from BD Biosciences (Franklin Lakes, N.J.), BioLegend (San Diego, Calif.) or eBioscience (San Diego, Calif.). Ulex europaeus agglutinin 1 (UEA-1), conjugated to FITC or Biotin, was purchased from Vector Laboratories (Burlingame, Calif.). GPR39 conjugated to FITC was purchased from Signalway Antibody (College Park, Md.). Red blood cell lysis was performed with ACK buffer (Thermo Scientific, Waltham, Mass.). Flow cytometry was performed on a Fortessa X50 (BD Biosciences, Franklin Lakes, N.J.) and cells were sorted on an Aria II (BD Biosciences) using FACSDiva (BD Biosciences, Franklin Lakes, N.J.). For intracellular cytokine or phosphoprotein analysis, cells were fixed and permeabilized using Fix Buffer I and Phospho-Perm Buffer III from BD Bioscience (Franklin Lakes, N.J.). Fluozin-3 AM was purchased from Thermo Fisher (Waltham, Mass.). Analysis was performed by FlowJo (Treestar Software, Ashland, Oreg.).

Take `O=c1ccn([C@@H]2O[C@H](COP(=O)([O-])OP(=O)([O-])OP(=O)([O-])OP(=O)([O-])Oc3ccccc3)[C@@H](O)[C@H]2O)c(=O)[nH]1.[Na+].[Na+].[Na+].[Na+]` [MRS 2768, tetrasodium; [[(2R,3S,4R,5R)-5-(2,4-dioxopyrimidin-1-yl)-3,4-dihydroxyoxolan-2-yl]methoxy-oxidophosphoryl] [oxido-[oxido(phenoxy)phosphoryl]oxyphosphoryl] phosphate]: the “thymic regeneration (thymus cellularity)” value in data set [1] (MRS 2768 5 mg/kg IP at day 3 after 550 cGy TBI, 5 mg/kg) is listed as “superior thymic regeneration; also recorded: enhancing thymus cellularity”. Moreover, the cTEC numbers result in data set [1] (MRS 2768 5 mg/kg, d13 following TBI, 5 mg/kg) was “increased cTEC numbers; also recorded: expanding cTECs”. Besides, in the data set on Foxn1 in C9 (cTEC) cells, the Foxn1 expression result is recorded as “increase in Foxn1 expression”.

Consider `Nc1[nH]nc2nnc(-c3c(-c4ccccc4)nn4ccccc34)cc12` [FR180204], for which the BMP4 production result with Bmp4 in exECs [2] (ERK inhibitor FR180204 prior to ZnSO4 (100 μM), 24 hours) was “BMP4 production was abrogated”.

For `Cc1ccc2c(c1)C=Cc1cc(C)ccc1C2c1cn(Cc2ccc(C(=O)Nc3nn[nH]n3)o2)c(=O)[nH]c1=S` [AR-C 1182925XX], in the data set with Foxn1 in C9 (cTEC) cells (C9 cells, P2Y2 antagonist, 20 h), the “effect on P2Y2 agonist-induced Foxn1 expression” value is “reversed”.

`O=S(=O)([O-])[O-].[Zn+2]` [ZnSO4, zinc sulphate]: the TEC proliferation result with C9 (cTEC) cells and in the data set on TE-71 (mTEC) cells was “did not show any direct effect” in each case. In addition, the “intracellular Zn in thymocytes” value in [3] is on record as “significantly increased levels of intracellular Zn”. Moreover, the “phosphorylation of ERK1/2” value in the data set with ERK1/2 is “led to phosphorylation of ERK1/2”. Moreover, the “GFP+ CD4+ and CD8+ lymphocytes (recent thymic emigrants)” value in [4] was “higher levels of GFP+CD4+ and CD8+ lymphocytes”. Also, the “BMP4 levels in the thymus” value in the data set with BMP4 (300 mg/kg/day ZnSO4 21 days before TBI without prior ZD, day 10) is listed as “increased levels of BMP4”; in the data set with BMP4 (ZD diet 21 days, 550 cGy TBI, 300 mg/kg/day ZnSO4 in drinking water from day 0, day 10), “restored BMP4 levels”. In addition, the Foxn1 expression result is given as “did not show any direct effect” in data set [5] (TE-71 cells, 100 μM ZnSO4, 24 h) and “did not show any direct effect” in the data set on Foxn1 in C9 (cTEC) cells (C9 cells, 100 μM ZnSO4, 24 h). Moreover, the BMP4 protein result with Bmp4 in exECs [2] (ZnSO4, 48 hours) is given as “confirmed at the protein level”. The “transcription of Bmp4” value with Bmp4 in exECs [6] is “dose-dependent increase”. Besides, in data set [7], the “production of DP (CD4+CD8+) cells” value is given as “more robust production of DP”. Further, in [8], the “Bmp4 expression in purified ECs” value is reported as “increased expression of Bmp4”.

Take `Nc1ncnc2c1ncn2[C@@H]1O[C@H](COP(=O)(O)OP(=O)(O)OP(=O)(O)O)[C@@H](O)[C@H]1O` [ATP]: the “thymic regeneration (thymus cellularity)” value in data set [1] (ATP by intraperitoneal injection at d3 after SL-TBI (legend: 5 mg/kg bzATP)) is given as “superior thymic regeneration; also recorded: enhancing thymus cellularity”. Besides, the Foxn1 expression result in the data set with Foxn1 in C9 (cTEC) cells (C9 cells, ATP, 20 h) is listed as “potent inducer of FOXN1”.

Consider tunicamycin, for which the Foxn1 expression entry in [5] (TE71 cells, Tunicamycin 5 ug/ml) is listed as “induced Foxn1 expression”; with Foxn1 in C9 (cTEC) cells (C9 cells, Tunicamycin 5 ug/ml), “induced Foxn1 expression”.

For `C/C=C(/C)C(=O)O[C@H]1C(C)=C2[C@H]([C@@H]1OC(=O)CCCCCCC)[C@@](C)(OC(C)=O)C[C@H](OC(=O)CCC)[C@@]1(O)[C@H]2OC(=O)[C@@]1(C)O` [thapsigargan], the “effect on tunicamycin-induced Foxn1 expression” value is recorded as “reversed” in data set [5] (TE71 cells, Thapsigargan 1 μg/ml) and “reversed” in the data set on Foxn1 in C9 (cTEC) cells (C9 cells, Thapsigargan 1 μg/ml).

The values above are taken from patent US20230263800A1, “COMPOSITIONS AND METHODS TO PROMOTE THYMIC FUNCTION” (Fred Hutchinson Cancer Center, priority 2020, published 2023).
